In patent publication EP0458363B1, “Fluorinated bis(hydroxymethyl) cyclobutyl purines and pyrimidines” (E.R. SQUIBB & SONS, INC., priority 1990, dated 1991):
Read-outs that look alike come from different tables or passages of the source.

Assays:
Type in all cases: cell-based
[1] = test system: HSV-1 (herpes simplex virus type 1, strain Schooler); assay: HSV-1 antiviral plaque reduction assay in cell culture; settings: WI-38 cell culture monolayers, at least 50% plaque reduction, 4 days incubation at 37°C, read-out: ID₅₀(µM) for the following viruses HSV-1
Procedure: (§1) Assays were performed in cell culture systems to determine the concentrations of compounds that are effective in preventing several kinds of viral infections.
(§2) HSV-1 (herpes simplex virus type 1, strain Schooler), HSV-2 (herpes simplex virus type 2, strain 186), VZV (varicella zoster virus, strain ELLEN), HCMV (human cytomegalovirus, strain AD 169), MuLV (murine leukemia virus, strain CAS).
(§3) HSV-1, HSV-2, HCMV, and VZV antiviral assays: Virus was adsorbed to WI-38 cell culture monolayers in 6 well culture plates (Costar, Cambridge, MA) for 1 hour prior to addition of maintenance medium containing duplicate dilutions of the test compound. Inhibition of plaque development was evaluated on fixed and stained monolayers after 4 days incubation at 37°C for HSV-1 and HSV-2 and after 6-7 days incubation at 37°C for HCMV and VZV. ID₅₀ values were determined from the drug concentration which conferred at least a 50% plaque reduction compared to virus controls.

[2] = test system: HSV-2 (herpes simplex virus type 2, strain 186); assay: HSV-2 antiviral plaque reduction assay in cell culture; settings: WI-38 cell culture monolayers, at least 50% plaque reduction, 4 days incubation at 37°C, read-out: ID₅₀(µM) for the following viruses HSV-2
Procedure: as §1, §2, §3

[3] = test system: VZV (varicella zoster virus, strain ELLEN); assay: VZV antiviral plaque reduction assay in cell culture; settings: WI-38 cell culture monolayers, at least 50% plaque reduction, 6-7 days incubation at 37°C, read-out: ID₅₀(µM) for the following viruses VZV
Procedure: as §1, §2, §3

[4] = test system: HCMV (human cytomegalovirus, strain AD 169); assay: HCMV antiviral plaque reduction assay in cell culture; settings: WI-38 cell culture monolayers, at least 50% plaque reduction, 6-7 days incubation at 37°C, read-out: ID₅₀(µM) for the following viruses HCMV
Procedure: as §1, §2, §3

[5] = test system: MuLV (murine leukemia virus, strain CAS); assay: MuLV antiviral assay (XC syncytial plaque assay); settings: SC1, SC-1 cells, XC cell overlay, syncytial plaques counted, read-out: ID₅₀(µM) for the following viruses MuLV
Procedure: as §1, §2
MuLV antiviral assay: Antiviral assays using MuLV were performed with some modification, as described by Rowe et al. and Shannon et al.. SC-1 cells were planted at approximately 2 x 10⁵ cell per well in 6 well plates. After overnight incubation at 37°C, the cell cultures were sensitised with DEAS-Dextran for one hour at 37°C, rinsed and inoculated with MuLV. Cultures were re-fed with growth medium containing different concentrations of the test compound. After three more days at 37°C, cultures were re-fed with fresh medium plus test compounds and incubated at 37°C for an additional 3 days. Cultures were then washed to remove medium, ultraviolet light irradiated, and planted with approximately 5 x 10⁵ XC cells per well in cell growth medium containing the appropriate concentration of the test compound. […] Finally the cultures were rinsed, stained and syncytial plaques were counted. […]

SMILES	IC50 ([1]; Human alphaherpesvirus 1, 96 h) [µM]	IC50 ([2]; Human alphaherpesvirus 2, 96 h) [µM]	IC50 ([3]; Human alphaherpesvirus 3) [µM]	IC50 ([4]; Human betaherpesvirus 5) [µM]	IC50 [5] [µM]	IC50 [1] [µM]	IC50 [2] [µM]	IC50 [3] [µM]	IC50 [4] [µM]
Nc1nc2c(ncn2[C@@H]2[C@@H](F)[C@H](CO)[C@H]2CO)c(=O)[nH]1 (racemic) [Compound I, (1α,2β,3α,4β)-2-Amino-9-[2-fluoro-3,4-bis(hydroxymethyl)cyclobutyl]-1,9-dihydro-6H-purin-6-one]	0.7 to 1.8	0.7	1.8 to 3.5	3.5 to 35	3.5 to 7	–	–	–	–
Nc1ncnc2c1ncn2[C@@H]1[C@@H](F)[C@H](CO)[C@H]1CO (racemic) [Compound III, (1α,2β,3α,4β)-3-(6-Amino-9H-purin-9-yl)-4-fluoro-1,2-cyclobutanedimethanol]	37	7.5 to 19	37	37	–	–	–	–	–
Nc1nc2c(ncn2[C@@H]2[C@@H](F)[C@H](CO)[C@H]2CO)c(=O)[nH]1 [Compound II, [1S-(1α,2β,3α,4β)]-2-Amino-9-[2-fluoro-3,4-bis(hydroxymethyl)cyclobutyl]-1,9-dihydro-6H-purin-6-one]	–	–	–	–	–	0.7 to 1.8	0.4 to 0.7	≤ 0.7	18 to 35
O=c1[nH]c(=O)n([C@@H]2[C@@H](F)[C@H](CO)[C@H]2CO)cc1/C=C/Br [Compound IV, [1S-(1α(E),2β,3α,4β)]-1-[2-fluoro-3,4-bis(hydroxymethyl)cyclobutyl]-5-(2-bromoethenyl)-2,4-(1H,3H)-pyrimidinedione]	> 286	> 286	28.6 to 286	> 286	–	–	–	–	–
O=c1[nH]c(=O)n([C@@H]2[C@@H](F)[C@H](CO)[C@H]2CO)cc1/C=C/I [Compound V, [1S-(1α(E),2β,3α,4β)]-1-[2-fluoro-3,4-bis(hydroxymethyl)cyclobutyl]-5-(2-iodoethenyl)-2,4-(1H,3H)-pyrimidinedione]	> 252	> 252	2.5 to 25.2	> 252	–	–	–	–	–
